{"source": "patent US10945932B2", "about": "“Prebiotic oral care compositions containing carboxylic acids” (COLGATE-PALMOLIVE COMPANY, priority 2013, dated 2021)", "key": {"[1]": {"test_system": "beneficial oral bacteria and pathogenic oral bacteria", "settings": "over 48 hours, threshold value of 1.25", "quoted_text": "The beneficial oral bacteria tested were Streptococcus mitis, Streptococcus salivarius, Streptococcus sanguinis, Actinomyces viscosus, Streptococcus gordonii, Capnocytophaga sputigena, Actinomyces naeslundii and Veillonella parvula. The pathogenic oral bacteria tested were Streptococcus mutans, Prevotella intermedia, Porphyromonas gingivalis, Fusobacterium nucleatum, Tannerella forsythia, Aggregatibacter actinomycetemcomitans and Streptococcus sobrinus.\n(§2) Late exponential growth phase liquid cultures were prepared by transferring the respective bacterium from blood agar plates to BHI and overnight incubation at 37° C. in an anaerobic atmosphere for A. viscosus, V. parvula, F. nucleatum, P. gingivalis, P. intermedia, T forsythia, A. naeslundii, and C. sputigena, and in a 5% CO2 environment for S. salivarius, S. sanguinis, S. mitis, A. actinomycetemcomitans, S. mutans, S. sobrinus and S. gordonii. Overnight cultures were transferred to BHI and adjusted to a concentration of 1×10^7 CFU/ml (colony forming units per ml) by measuring the optical density at 600 nm (OD600) (BioRad SmartSpec 3000). For each strain, 200 μl of the bacterial suspension was added to a 96-well plate containing 20 μl of the respective carboxylic acids. Final concentrations of the carboxylic acids were set to 5, 10, 20 and 25 μmol/ml. […] Plates were incubated as previously described.\n(§3) For each combination of bacterium/carboxylic acid, and for each of their respective controls (i.e. the particular bacterium in the nutritionally rich medium with no carboxylic acid), the optical density was measured at 630 nm (OD630) at 0 h, 24 h and 48 h (Thermo Scientific Multiskan Ascent). Additionally, the OD630 for combinations of bacterium/carboxylic acid grown in a 5% CO2 environment were also measured every hour between 0 h and 9 h.\n(§4) The experiment was carried out on three different days (thus providing 3 biological replicas) and on each day the experiment was carried out in quadruple (thus providing 4 technical replicas) for each combination of bacterium with carboxylic acid and for each control. For each day and for each combination, the average (mean) of the values obtained (as detailed above) for the four technical replicas was calculated to provide a single value for each combination on each day.\nThis value was selected in order to exclude low-stimulating metabolites and avoid false positive results."}, "Prevotella intermedia [2]": {"test_system": "Prevotella intermedia", "settings": "P intermedia, BHI", "protocol": "as §2, §3, §4"}, "Tannerella forsythia": {"test_system": "Tannerella forsythia", "settings": "T forsythia, BHI", "protocol": "as §2, §3, §4"}, "[3]": {"test_system": "beneficial oral bacteria and pathogenic oral bacteria", "assay": "Biofilm growth, prebiotic effect over the whole panel", "format": "cell-based", "settings": "25 μmol/ml; 48 hours; threshold value of 1.6", "description": "(§1) Late exponential growth phase liquid cultures were prepared by transferring the respective bacterium from blood agar plates to BHI and overnight incubation at 37° C. in an anaerobic atmosphere for A. viscosus, V. parvula, F. nucleatum, P. gingivalis, P. intermedia, T. forsythia, A. naeslundii, and C. sputigena, and in a 5% CO2 environment for S. salivarius, S. sanguinis, S. mitis, A. actinomycetemcomitans, S. mutans, and S. gordonii. […] Additionally, for each bacterium tested, a background control, to correct for background staining, was added. This background control contained the bacterium tested and 0.03 weight % chlorhexidine, as an antiseptic. Plates were incubated as previously described. After 48 hrs the supernatant was removed from the wells of the plates. The wells were washed twice with 1×100 μL/PBS (phosphate buffered saline), fixed for 20 minutes with 96% vol. ethanol (96% vol. solution in water) and the biofilm retained at the bottom of the wells was stained with 1 weight % crystal violet (1 weight % solution in water). […] Quantification of the stained biofilm was performed by measuring the absorbance at 630 nm using a Multiskan Ascent microplate reader (Thermo Scientific)."}, "Streptococcus sobrinus": {"test_system": "Streptococcus sobrinus", "settings": "S sobrinus, BHI", "protocol": "as §2, §3, §4"}, "Veillonella parvula [4]": {"test_system": "Veillonella parvula", "settings": "V parvula, BHI", "protocol": "as §2, §3, §4"}, "[5]": {"test_system": "Aggregatibacter actinomycetemcomitans", "settings": "A actinomycetemcomitans, BHI", "protocol": "as §2, §3, §4"}, "Actinomyces viscosus": {"test_system": "Actinomyces viscosus", "assay": "Biofilm growth assay in BHI, crystal violet", "format": "cell-based", "settings": "A viscosus", "description": "as §1"}, "Veillonella parvula [6]": {"test_system": "Veillonella parvula", "assay": "Biofilm growth assay in BHI, crystal violet", "format": "cell-based", "settings": "V parvula", "description": "as §1"}, "[7]": {"test_system": "Aggregatibacter actinomycetemcomitans", "assay": "Biofilm growth assay in BHI, crystal violet", "format": "cell-based", "settings": "A actinomycetemcomitans", "description": "as §1"}, "Prevotella intermedia [8]": {"test_system": "Prevotella intermedia", "assay": "Biofilm growth assay in BHI, crystal violet", "format": "cell-based", "settings": "P intermedia", "description": "as §1"}}, "note": "Like-named read-outs stand apart in the source and are kept apart here.", "data": [{"smiles": "O=C(O)CCC(=O)O", "note": "[Succinic acid, succinic acid]", "values": [{"measurement": "prebiotic effect (extent of growth)", "setting": "[1]; 20 μmol/ml", "result": "exhibited prebiotic effects"}, {"measurement": "prebiotic effect (extent of growth)", "setting": "[1]; 25 μmol/ml", "result": "exhibited prebiotic effects"}, {"measurement": "extent of growth, maximal OD630 over 48 hr divided by maximal OD of control (control = 1)", "setting": "Prevotella intermedia [2]; 5 μmol/ml", "result": 0.8288}, {"measurement": "extent of growth, maximal OD630 over 48 hr divided by maximal OD of control (control = 1)", "setting": "Prevotella intermedia [2]; 10 μmol/ml", "result": 0.4471}, {"measurement": "extent of growth, maximal OD630 over 48 hr divided by maximal OD of control (control = 1)", "setting": "Prevotella intermedia [2]; 20 μmol/ml", "result": 0.0944}, {"measurement": "extent of growth, maximal OD630 over 48 hr divided by maximal OD of control (control = 1)", "setting": "Prevotella intermedia [2]; 25 μmol/ml", "result": 0.0921}, {"measurement": "extent of growth, maximal OD630 over 48 hr divided by maximal OD of control (control = 1)", "setting": "Tannerella forsythia; 5 μmol/ml", "result": 0.9040}, {"measurement": "extent of growth, maximal OD630 over 48 hr divided by maximal OD of control (control = 1)", "setting": "Tannerella forsythia; 10 μmol/ml", "result": 0.7937}, {"measurement": "extent of growth, maximal OD630 over 48 hr divided by maximal OD of control (control = 1)", "setting": "Tannerella forsythia; 20 μmol/ml", "result": 0.7975}, {"measurement": "extent of growth, maximal OD630 over 48 hr divided by maximal OD of control (control = 1)", "setting": "Tannerella forsythia; 25 μmol/ml", "result": 0.8103}, {"measurement": "prebiotic effect (biofilm growth)", "setting": "[3]", "result": "exhibited prebiotic effects"}, {"measurement": "extent of growth, maximal OD630 over 48 hr divided by maximal OD of control (control = 1)", "setting": "Streptococcus sobrinus; 5 μmol/ml", "result": 0.9460}, {"measurement": "extent of growth, maximal OD630 over 48 hr divided by maximal OD of control (control = 1)", "setting": "Streptococcus sobrinus; 10 μmol/ml", "result": 0.8269}, {"measurement": "extent of growth, maximal OD630 over 48 hr divided by maximal OD of control (control = 1)", "setting": "Streptococcus sobrinus; 20 μmol/ml", "result": 0.4744}, {"measurement": "extent of growth, maximal OD630 over 48 hr divided by maximal OD of control (control = 1)", "setting": "Streptococcus sobrinus; 25 μmol/ml", "result": 0.2284}, {"measurement": "extent of growth, maximal OD630 over 48 hr divided by maximal OD of control (control = 1)", "setting": "Veillonella parvula [4]; 5 μmol/ml", "result": 1.1624}, {"measurement": "extent of growth, maximal OD630 over 48 hr divided by maximal OD of control (control = 1)", "setting": "Veillonella parvula [4]; 10 μmol/ml", "result": 1.1922}, {"measurement": "extent of growth, maximal OD630 over 48 hr divided by maximal OD of control (control = 1)", "setting": "Veillonella parvula [4]; 20 μmol/ml", "result": 1.4603}, {"measurement": "extent of growth, maximal OD630 over 48 hr divided by maximal OD of control (control = 1)", "setting": "Veillonella parvula [4]; 25 μmol/ml", "result": 1.3566}, {"measurement": "extent of growth, maximal OD630 over 48 hr divided by maximal OD of control (control = 1)", "setting": "[5]; 5 μmol/ml", "result": 0.6497}, {"measurement": "extent of growth, maximal OD630 over 48 hr divided by maximal OD of control (control = 1)", "setting": "[5]; 10 μmol/ml", "result": 0.4197}, {"measurement": "extent of growth, maximal OD630 over 48 hr divided by maximal OD of control (control = 1)", "setting": "[5]; 20 μmol/ml", "result": 0.1940}, {"measurement": "extent of growth, maximal OD630 over 48 hr divided by maximal OD of control (control = 1)", "setting": "[5]; 25 μmol/ml", "result": 0.1968}, {"measurement": "biofilm growth, OD at 630 nm (crystal violet) at 48 hrs divided by OD of control (control = 1)", "setting": "Actinomyces viscosus; 5 μmol/ml", "result": 0.3969}, {"measurement": "biofilm growth, OD at 630 nm (crystal violet) at 48 hrs divided by OD of control (control = 1)", "setting": "Actinomyces viscosus; 10 μmol/ml", "result": 0.3190}, {"measurement": "biofilm growth, OD at 630 nm (crystal violet) at 48 hrs divided by OD of control (control = 1)", "setting": "Actinomyces viscosus; 20 μmol/ml", "result": 0.0498}, {"measurement": "biofilm growth, OD at 630 nm (crystal violet) at 48 hrs divided by OD of control (control = 1)", "setting": "Actinomyces viscosus; 25 μmol/ml", "result": 0.0622}, {"measurement": "biofilm growth, OD at 630 nm (crystal violet) at 48 hrs divided by OD of control (control = 1)", "setting": "Veillonella parvula [6]; 5 μmol/ml", "result": 0.9059}, {"measurement": "biofilm growth, OD at 630 nm (crystal violet) at 48 hrs divided by OD of control (control = 1)", "setting": "Veillonella parvula [6]; 10 μmol/ml", "result": 1.0118}, {"measurement": "biofilm growth, OD at 630 nm (crystal violet) at 48 hrs divided by OD of control (control = 1)", "setting": "Veillonella parvula [6]; 20 μmol/ml", "result": 1.1681}, {"measurement": "biofilm growth, OD at 630 nm (crystal violet) at 48 hrs divided by OD of control (control = 1)", "setting": "Veillonella parvula [6]; 25 μmol/ml", "result": 1.4334}, {"measurement": "biofilm growth, OD at 630 nm (crystal violet) at 48 hrs divided by OD of control (control = 1)", "setting": "[7]; 5 μmol/ml", "result": 0.6941}, {"measurement": "biofilm growth, OD at 630 nm (crystal violet) at 48 hrs divided by OD of control (control = 1)", "setting": "[7]; 10 μmol/ml", "result": 0.5093}, {"measurement": "biofilm growth, OD at 630 nm (crystal violet) at 48 hrs divided by OD of control (control = 1)", "setting": "[7]; 20 μmol/ml", "result": 0.0593}, {"measurement": "biofilm growth, OD at 630 nm (crystal violet) at 48 hrs divided by OD of control (control = 1)", "setting": "[7]; 25 μmol/ml", "result": 0.0581}, {"measurement": "biofilm growth, OD at 630 nm (crystal violet) at 48 hrs divided by OD of control (control = 1)", "setting": "Prevotella intermedia [8]; 5 μmol/ml", "result": 0.8344}, {"measurement": "biofilm growth, OD at 630 nm (crystal violet) at 48 hrs divided by OD of control (control = 1)", "setting": "Prevotella intermedia [8]; 10 μmol/ml", "result": 0.7023}, {"measurement": "biofilm growth, OD at 630 nm (crystal violet) at 48 hrs divided by OD of control (control = 1)", "setting": "Prevotella intermedia [8]; 20 μmol/ml", "result": 0.0589}, {"measurement": "biofilm growth, OD at 630 nm (crystal violet) at 48 hrs divided by OD of control (control = 1)", "setting": "Prevotella intermedia [8]; 25 μmol/ml", "result": 0.1442}]}]}
